From patent US10961539B2, “Promoter system inducing expression by 3-hydroxypropionic acid and method for biological production of 3-hydroxypropionic acid using same” (NOROO IC Co., Ltd., priority 2015, dated 2021)

How the values were obtained:
[1] = tested on: 3hpdh, 3hibdhIV, and mmsadh; assay: Inducer specificity of gene expression (FIGS. 4 and 5); format: cell-based, Pseudomonas denitrificans; details: for amplification of the genes 3hpdh, 3hibdhIV and mmsadh by the compound: FIGS. 4 and 5; for inducer of expression of mmsadh and 3hibdhIV: FIG. 4
[2] = tested on: 3hpdh; assay: RT-PCR relative mRNA level of 3-HP catabolic gene; details: FIG. 5

Row | SMILES | amplification of the genes 3hpdh, 3hibdhIV and mmsadh by the compound [1] | inducer of expression of mmsadh and 3hibdhIV [1] | inducer of expression of 3hpdH [2]
1 | OCCCO [1,3-propanediol] | not induced | – | –
2 | CC(O)C(C)O (centres unmarked) [2,3-butandiol] | not induced | – | –
3 | CC(O)CC(=O)O (centres unmarked) [3-HB, 3-hydroxybutyrate] | amplified | acts as an inducer | acts as an inducer
4 | CC(CO)C(=O)O (centres unmarked) [3HIB, 3-hydroxyisobutyrate] | amplified | acts as an inducer | acts as an inducer
5 | CC(C)[C@H](N)C(=O)O [L-valine] | induced | acts as an inducer | acts as an inducer
6 | CC(=O)O [acetic acid] | not induced | – | –
7 | CC(O)C(=O)O (centres unmarked) [lactic acid] | not induced | – | –
8 | CCC(=O)O [propionic acid] | not induced | – | –
